{"source": "patent US8410097B2", "about": "(priority 2005, dated 2013)", "key": {"CB1 cannabinoid receptor": {"biological_target": "T1, CB1 cannabinoid receptor (Rattus norvegicus, UniProt P20272)", "T1 construct": "membranes were prepared from rat forebrain membranes; from tissue; host or cells: rat forebrain membranes", "T1 sequence (P20272 whole entry)": "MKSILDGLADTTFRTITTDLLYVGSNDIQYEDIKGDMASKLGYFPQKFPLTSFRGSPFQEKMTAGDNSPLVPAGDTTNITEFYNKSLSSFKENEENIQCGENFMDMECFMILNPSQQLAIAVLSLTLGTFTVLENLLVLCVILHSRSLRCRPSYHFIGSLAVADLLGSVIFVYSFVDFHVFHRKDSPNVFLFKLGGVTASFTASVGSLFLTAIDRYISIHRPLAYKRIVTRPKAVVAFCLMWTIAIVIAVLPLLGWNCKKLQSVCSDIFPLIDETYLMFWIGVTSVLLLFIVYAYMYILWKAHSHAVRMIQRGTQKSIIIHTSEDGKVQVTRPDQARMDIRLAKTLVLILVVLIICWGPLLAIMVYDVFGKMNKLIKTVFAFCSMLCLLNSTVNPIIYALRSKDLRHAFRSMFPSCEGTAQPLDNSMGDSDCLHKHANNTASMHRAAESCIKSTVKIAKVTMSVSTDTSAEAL", "assay": "biochemical", "format": "binding", "details": "for Ki: rat forebrain membranes; for Selectivity CB1: CB1 over CB2 binding selectivity (ratio of Ki)", "experimental": "Some of the inventive analogs were tested for CB2 receptor binding affinity and for CB1 receptor affinity (to determine selectivity). […] The lower the Ki value the higher the binding affinity. […]\nMembranes, previously frozen at −80° C., were thawed on ice. To the stirred suspension was added three volumes of TME (25 mM Tris-HCl buffer, 5 mM MgCl2 and 1 mM EDTA) at a pH 7.4. The suspension was incubated at 4° C. for 30 min. At the end of the incubation, the membranes were pelleted and washed three times with TME.\n(§1) The treated membranes were subsequently used in the binding assay described below. Approximately 30 μg of membranes were incubated in silanized 96-well microtiter plate with TME containing 0.1% essentially fatty acid-free bovine serum albumin (BSA), 0.8 nM [^3H] […] Radioactivity was detected using MicroScint 20 scintillation cocktail added directly to the dried filterplates, and the filterplates were counted using a Packard Instruments Top-Count. […] Data collected from three independent experiments performed with duplicate determinations was normalized between 100% and 0% specific binding for [^3H] […] The normalized data was analyzed using a 4-parameter nonlinear logistic equation to yield IC50 values."}, "CB2 cannabinoid receptor": {"biological_target": "CB2 cannabinoid receptor (Mus musculus, UniProt P47936)", "sequence (P47936 whole entry)": "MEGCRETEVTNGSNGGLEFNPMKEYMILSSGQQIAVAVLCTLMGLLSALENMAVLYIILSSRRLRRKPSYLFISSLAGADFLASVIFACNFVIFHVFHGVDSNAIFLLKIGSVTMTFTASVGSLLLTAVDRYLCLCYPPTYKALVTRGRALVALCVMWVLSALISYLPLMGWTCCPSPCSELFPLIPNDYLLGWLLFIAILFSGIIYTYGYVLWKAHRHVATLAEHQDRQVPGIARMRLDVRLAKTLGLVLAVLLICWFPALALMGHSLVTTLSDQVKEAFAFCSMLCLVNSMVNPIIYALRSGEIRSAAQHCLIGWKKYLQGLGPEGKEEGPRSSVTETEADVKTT", "assay": "biochemical", "format": "binding", "details": "mouse spleen membranes", "experimental": "Some of the inventive analogs were tested for CB2 receptor binding affinity and for CB1 receptor affinity (to determine selectivity). […] The lower the Ki value the higher the binding affinity.\nas §1\nSilanized centrifuge tubes were used throughout to minimize receptor loss due to adsorption. The CB2 binding assay was conducted in the same manner as for the CB1 binding assay. The binding affinities (Ki) were also expressed in nanomoles (nM)."}, "[1]": {"details": "Receptor Affinities Ki (nM) CB1, Table 8"}, "[2]": {"details": "Table 8, read-out: Receptor Affinities Ki (nM) CB2"}, "[3]": {"details": "Receptor Affinities Ki (nM) CB1, Table 10"}, "[4]": {"details": "Table 10, read-out: Receptor Affinities Ki (nM) CB2"}, "[5]": {"details": "Receptor Affinities Ki (nM) CB1, Table 9"}, "[6]": {"details": "Table 9, read-out: Receptor Affinities Ki (nM) CB2"}, "[7]": {"details": "CB1 Ki, Table 6, 0.8 nM [3H] CP-55,940"}, "[8]": {"details": "Table 6, [3H] CP-55,940, read-out: CB2 Ki"}}, "note": "Where two headings read alike, the source gives them in different places.", "data": [{"smiles": "Cc1c(C(=O)NN2CCCCC2)nn(-c2ccc(Cl)cc2Cl)c1-c1ccc(C#CCCCO)cc1", "note": "[Compound 3-5]", "values": [{"measurement": "Ki", "setting": "CB1 cannabinoid receptor; [1]", "result": 2, "unit": "nM"}, {"measurement": "Selectivity CB1", "setting": "CB1 cannabinoid receptor; Table 8", "result": 72}, {"measurement": "Ki", "setting": "CB2 cannabinoid receptor; [2]", "result": 144, "unit": "nM"}]}, {"smiles": "Cc1c(C(=O)NN2CCCCC2)nn(-c2ccc(Cl)cc2Cl)c1-c1ccc(C#Cc2ccccn2)cc1", "note": "[Compound 5-9]", "values": [{"measurement": "Ki", "setting": "CB1 cannabinoid receptor; [3]", "result": 50, "unit": "nM"}, {"measurement": "Selectivity CB1", "setting": "CB1 cannabinoid receptor; Table 10", "result": 1}, {"measurement": "Ki", "setting": "CB2 cannabinoid receptor; [4]", "result": 59, "unit": "nM"}]}, {"smiles": "Cc1c(C(=O)N(C)C2CCCCC2)nc(-c2ccc(Cl)cc2Cl)n1-c1ccc(CCCO)cc1", "note": "[Compound 4-7]", "values": [{"measurement": "Ki", "setting": "CB1 cannabinoid receptor; [5]", "result": 100, "unit": "nM"}, {"measurement": "Selectivity CB1", "setting": "CB1 cannabinoid receptor; Table 9", "result": 3}, {"measurement": "Ki", "setting": "CB2 cannabinoid receptor; [6]", "result": 290, "unit": "nM"}]}, {"smiles": "O=C(NN1CCCCC1)c1nc(-c2ccc(Cl)cc2Cl)n(-c2ccc(-c3cccnc3)cc2)c1CO", "note": "[Compound 1-15]", "values": [{"measurement": "Ki", "setting": "CB1 cannabinoid receptor; [7]", "result": 23, "unit": "nM"}, {"measurement": "Ki", "setting": "CB2 cannabinoid receptor; [8]", "result": 2780, "unit": "nM"}]}, {"smiles": "Cc1c(C(=O)NN2CCCCC2)nc(-c2ccc(Cl)cc2Cl)n1-c1ccc(C#CCO)cc1", "note": "[Compound 1-31]", "values": [{"measurement": "Ki", "setting": "CB1 cannabinoid receptor; [7]", "result": 18, "unit": "nM"}, {"measurement": "Ki", "setting": "CB2 cannabinoid receptor; [8]", "result": 1140, "unit": "nM"}]}, {"smiles": "Cc1c(C(=O)NN2CCCCC2)nn(-c2ccc(Cl)cc2Cl)c1-c1ccc(C#CCCCN)cc1", "note": "[Compound 5-14]", "values": [{"measurement": "Ki", "setting": "CB1 cannabinoid receptor; [3]", "result": 46, "unit": "nM"}, {"measurement": "Selectivity CB1", "setting": "CB1 cannabinoid receptor; Table 10", "result": 20}, {"measurement": "Ki", "setting": "CB2 cannabinoid receptor; [4]", "result": 947, "unit": "nM"}]}, {"smiles": "Cc1c(C(=O)NN2CCCCC2)nn(-c2ccc(Cl)cc2Cl)c1-c1ccc(C#CC2(O)CCCCC2)cc1", "note": "[Compound 5-7]", "values": [{"measurement": "Ki", "setting": "CB1 cannabinoid receptor; [3]", "result": 20, "unit": "nM"}, {"measurement": "Selectivity CB1", "setting": "CB1 cannabinoid receptor; Table 10", "result": 3.5}, {"measurement": "Ki", "setting": "CB2 cannabinoid receptor; [4]", "result": 68, "unit": "nM"}]}, {"smiles": "O=C(NN1CCCCC1)c1nn(-c2ccc(Cl)cc2Cl)c(-c2ccc(CCCCO)cc2)c1CO", "note": "[Compound 4-3]", "values": [{"measurement": "Ki", "setting": "CB1 cannabinoid receptor; [5]", "result": 31, "unit": "nM"}, {"measurement": "Selectivity CB1", "setting": "CB1 cannabinoid receptor; Table 9", "result": 243}, {"measurement": "Ki", "setting": "CB2 cannabinoid receptor; [6]", "result": 7540, "unit": "nM"}]}, {"smiles": "Cn1nnnc1-c1ccc(-n2c(-c3ccc(Cl)cc3Cl)nc(C(=O)NN3CCCCC3)c2CO)cc1", "note": "[Compound 1-20]", "values": [{"measurement": "Ki", "setting": "CB1 cannabinoid receptor; Table 6, 0.8 nM [3H] CP-55,940, read-out: CB1 Ki", "result": 400, "unit": "nM"}, {"measurement": "Ki", "setting": "CB2 cannabinoid receptor; [8]", "result": 12300, "unit": "nM"}]}, {"smiles": "O=C(NC1CCCCC1)c1nc(-c2ccc(Cl)cc2Cl)n(-c2ccc(I)cc2)c1CO", "note": "[Compound 1-12]", "values": [{"measurement": "Ki", "setting": "CB1 cannabinoid receptor; [7]", "result": 19, "unit": "nM"}, {"measurement": "Ki", "setting": "CB2 cannabinoid receptor; [8]", "result": 22400, "unit": "nM"}]}, {"smiles": "Cc1c(C(=O)NN2CCCCC2)nc(-c2ccc(Cl)cc2Cl)n1-c1ccc(-c2nccs2)cc1", "note": "[Compound 1-28]", "values": [{"measurement": "Ki", "setting": "CB1 cannabinoid receptor; [7]", "result": 7.7, "unit": "nM"}, {"measurement": "Ki", "setting": "CB2 cannabinoid receptor; [8]", "result": 656, "unit": "nM"}]}, {"smiles": "Cc1c(C(=O)NN2CCCCC2)nn(-c2ccc(Cl)cc2Cl)c1-c1ccc(CCC#N)cc1", "note": "[Compound 4-4]", "values": [{"measurement": "Ki", "setting": "CB1 cannabinoid receptor; [5]", "result": 13, "unit": "nM"}, {"measurement": "Selectivity CB1", "setting": "CB1 cannabinoid receptor; Table 9", "result": 176}, {"measurement": "Ki", "setting": "CB2 cannabinoid receptor; [6]", "result": 2290, "unit": "nM"}]}, {"smiles": "O=C(NN1CCCCC1)c1nc(-c2ccc(Cl)cc2Cl)n(-c2ccc(Br)cc2)c1CO", "note": "[Compound 1-4]", "values": [{"measurement": "Ki", "setting": "CB1 cannabinoid receptor; [7]", "result": 10.8, "unit": "nM"}, {"measurement": "Ki", "setting": "CB2 cannabinoid receptor; CB2 Ki, Table 6, [3H] CP-55,940", "result": 319, "unit": "nM"}]}, {"smiles": "Cc1c(C(=O)N(C)C2CCCCC2)nc(-c2ccc(Cl)cc2Cl)n1-c1ccc(C#CCN=[N+]=[N-])cc1", "note": "[Compound 3-11]", "values": [{"measurement": "Ki", "setting": "CB1 cannabinoid receptor; [1]", "result": 1, "unit": "nM"}, {"measurement": "Selectivity CB1", "setting": "CB1 cannabinoid receptor; Table 8", "result": 82}, {"measurement": "Ki", "setting": "CB2 cannabinoid receptor; [2]", "result": 82, "unit": "nM"}]}, {"smiles": "N#CCCC#Cc1ccc(-n2c(-c3ccc(Cl)cc3Cl)nc(C(=O)NN3CCCCC3)c2CO)cc1", "note": "[Compound 3-10]", "values": [{"measurement": "Ki", "setting": "CB1 cannabinoid receptor; [1]", "result": 2, "unit": "nM"}, {"measurement": "Selectivity CB1", "setting": "CB1 cannabinoid receptor; Table 8", "result": 140}, {"measurement": "Ki", "setting": "CB2 cannabinoid receptor; [2]", "result": 279, "unit": "nM"}]}, {"smiles": "Cc1cc(Br)ccc1-n1c(-c2ccc(Cl)cc2Cl)nc(C(=O)NN2CCCCC2)c1CO", "note": "[Compound 1-3]", "values": [{"measurement": "Ki", "setting": "CB1 cannabinoid receptor; [7]", "result": 54.7, "unit": "nM"}, {"measurement": "Ki", "setting": "CB2 cannabinoid receptor; [8]", "result": 803, "unit": "nM"}]}, {"smiles": "O=C(NN1CCCCC1)c1nn(-c2ccc(Cl)cc2Cl)c(-c2ccc(C#CCO)cc2)c1CO", "note": "[Compound 3-4]", "values": [{"measurement": "Ki", "setting": "CB1 cannabinoid receptor; [1]", "result": 21, "unit": "nM"}, {"measurement": "Selectivity CB1", "setting": "CB1 cannabinoid receptor; Table 8", "result": 15}, {"measurement": "Ki", "setting": "CB2 cannabinoid receptor; [2]", "result": 313, "unit": "nM"}]}, {"smiles": "Cc1c(C(=O)NN2CCCCC2)nn(-c2ccc(Cl)cc2Cl)c1-c1ccc(C#CCN)cc1", "note": "[Compound 5-4]", "values": [{"measurement": "Ki", "setting": "CB1 cannabinoid receptor; [3]", "result": 21, "unit": "nM"}, {"measurement": "Selectivity CB1", "setting": "CB1 cannabinoid receptor; Table 10", "result": 2}, {"measurement": "Ki", "setting": "CB2 cannabinoid receptor; [4]", "result": 40, "unit": "nM"}]}, {"smiles": "Cc1c(C(=O)N(C)C2CCCCC2)nc(-c2ccc(Cl)cc2Cl)n1-c1ccc(C#CCO)cc1", "note": "[Compound 3-9]", "values": [{"measurement": "Ki", "setting": "CB1 cannabinoid receptor; [1]", "result": 27, "unit": "nM"}, {"measurement": "Selectivity CB1", "setting": "CB1 cannabinoid receptor; Table 8", "result": 9}, {"measurement": "Ki", "setting": "CB2 cannabinoid receptor; [2]", "result": 257, "unit": "nM"}]}, {"smiles": "Cc1c(C(=O)NN2CCCCC2)nn(-c2ccc(Cl)cc2Cl)c1-c1ccc(C#CCN=[N+]=[N-])cc1", "note": "[Compound 3-3]", "values": [{"measurement": "Ki", "setting": "CB1 cannabinoid receptor; [1]", "result": 3, "unit": "nM"}, {"measurement": "Selectivity CB1", "setting": "CB1 cannabinoid receptor; Table 8", "result": 250}, {"measurement": "Ki", "setting": "CB2 cannabinoid receptor; [2]", "result": 750, "unit": "nM"}]}, {"smiles": "[N-]=[N+]=NCc1c(C(=O)NN2CCCCC2)nc(-c2ccc(Cl)cc2Cl)n1-c1ccc(Br)cc1", "note": "[Compound 1-41]", "values": [{"measurement": "Ki", "setting": "CB1 cannabinoid receptor; [7]", "result": 7, "unit": "nM"}, {"measurement": "Ki", "setting": "CB2 cannabinoid receptor; [8]", "result": 954, "unit": "nM"}]}, {"smiles": "Cc1c(C(=O)NN2CCCCC2)nn(-c2ccc(Cl)cc2Cl)c1-c1ccc(C#CCO)cc1", "note": "[Compound 2-1, 1-(2,4-Dichloro-phenyl)-5-[4-(3-hydroxy-prop-1-ynyl)-phenyl]-4-methyl-1H-pyrazole-3-carboxylic acid piperidin-1-ylamide]", "values": [{"measurement": "Ki", "setting": "CB1 cannabinoid receptor; CB1 Ki, Table 7, 0.8 nM [3H] CP-55,940", "result": 33.1, "unit": "nM"}, {"measurement": "Ki", "setting": "CB2 cannabinoid receptor; Table 7, [3H] CP-55,940, read-out: CB2 Ki", "result": 1490, "unit": "nM"}]}, {"smiles": "Cc1c(C(=O)NN2CCCCC2)nn(-c2ccc(Cl)cc2Cl)c1-c1ccc(C#CCNC(=O)OC(C)(C)C)cc1", "note": "[Compound 5-2]", "values": [{"measurement": "Ki", "setting": "CB1 cannabinoid receptor; [3]", "result": 68, "unit": "nM"}, {"measurement": "Selectivity CB1", "setting": "CB1 cannabinoid receptor; Table 10", "result": 1.3}, {"measurement": "Ki", "setting": "CB2 cannabinoid receptor; [4]", "result": 88, "unit": "nM"}]}]}
